The numbers were not newly measured in patent US9844530B1, “Ophthalmic solutions for glaucoma and conjunctivitis treatment” (Axim Biotechnologies, Inc., priority 2014, dated 2017), which cites them from elsewhere.

This data set concerns various Staphylococcus aureus strains. As to conditions: background statement.

On to `C=C(C)[C@@H]1CCC(C)=C[C@H]1c1c(O)cc(CCCCC)cc1O` [Cannabidiol], for which the minimum inhibitory concentration was 0.5 to 1 µg/mL.
